Active and inactive are the calls of the source. No cut-off for these calls is given here.
Tested on: A-375
Assay: Induction of apoptosis in human A375 cells assessed as number of apoptotic cells at 2 uM incubated for 48 hrs by annexin V-FITC/PI based flow cytometric analysis relative to control
Type: functional
Settings: not given
Work on `O=C(Nc1ccc(F)cc1)c1n[nH]cc1NC(=O)c1c(F)cccc1F` yielded an Activity of 66.71%. For `Nc1ccc(F)cc1NC(=O)c1ccc(CNC(=O)/C=C/c2cccnc2)cc1`, the Activity was 62.6%.

Tested on: not listed separately
Assay: Cytotoxicity against mouse NIH/3T3 cells incubated for 72 hrs by CCK-8 assay
Type: cell-based
Settings: NIH3T3, 72 h
`O=C(Nc1ccc(F)cc1)c1n[nH]cc1NC(=O)c1c(F)cccc1F` gave an IC50 of 7.85 µM. Work on `Nc1ccc(F)cc1NC(=O)c1ccc(CNC(=O)/C=C/c2cccnc2)cc1` yielded an IC50 of 2.46 µM.

Tested on: NCI-H460
Assay: cells
Type: functional
Settings: Homo sapiens, time 72 hrs, read-out: GI
`O=C(Nc1ccc(F)cc1)c1n[nH]cc1NC(=O)c1c(F)cccc1F` showed an inhibition of growth at 8 µM of 59.1%. `Nc1ccc(F)cc1NC(=O)c1ccc(CNC(=O)/C=C/c2cccnc2)cc1` showed an inhibition of growth at 8 µM of 38.2%. `Nc1ccccc1NC(=O)Cc1ccc(NC(=O)c2n[nH]cc2NC(=O)c2c(F)cccc2Cl)cc1` showed an inhibition of growth at 8 µM of 75.1%. In the case of `O=C(Cc1ccc(NC(=O)c2n[nH]cc2NC(=O)c2c(Cl)cccc2Cl)cc1)NO`, the inhibition of growth at 8 µM is reported as 75.1%. `Nc1ccccc1NC(=O)Cc1ccc(NC(=O)c2n[nH]cc2NC(=O)c2c(F)cccc2F)cc1` gave an inhibition of growth at 8 µM of 73.8%. In the case of `Nc1ccccc1NC(=O)c1ccc(CNC(=O)c2n[nH]cc2NC(=O)c2ccccc2F)cc1`, the inhibition of growth at 8 µM is reported as 57.6%.

Tested on: HCT-116
Assay: Induction of apoptosis in human HCT116 cells assessed as number of apoptotic cells at 2 uM incubated for 48 hrs by annexin V-FITC/PI based flow cytometric analysis relative to control
Type: functional
Settings: not given
Work on `O=C(Nc1ccc(F)cc1)c1n[nH]cc1NC(=O)c1c(F)cccc1F` yielded an Activity of 48%. Molecule `Nc1ccc(F)cc1NC(=O)c1ccc(CNC(=O)/C=C/c2cccnc2)cc1` has an Activity of 44.3%.

Biological target: Cyclin-dependent kinase 7/ cyclin H (Homo sapiens, UniProt P50613)
Sequence (P51946 whole entry): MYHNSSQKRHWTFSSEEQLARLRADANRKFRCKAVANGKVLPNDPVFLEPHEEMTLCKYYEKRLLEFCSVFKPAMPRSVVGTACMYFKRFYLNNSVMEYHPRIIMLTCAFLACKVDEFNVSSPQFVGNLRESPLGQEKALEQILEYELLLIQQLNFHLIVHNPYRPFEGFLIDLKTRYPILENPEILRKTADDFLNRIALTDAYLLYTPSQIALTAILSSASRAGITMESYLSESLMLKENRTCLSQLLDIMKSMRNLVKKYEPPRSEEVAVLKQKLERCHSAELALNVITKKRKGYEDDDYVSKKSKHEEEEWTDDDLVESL
Sequence (P50613 whole entry): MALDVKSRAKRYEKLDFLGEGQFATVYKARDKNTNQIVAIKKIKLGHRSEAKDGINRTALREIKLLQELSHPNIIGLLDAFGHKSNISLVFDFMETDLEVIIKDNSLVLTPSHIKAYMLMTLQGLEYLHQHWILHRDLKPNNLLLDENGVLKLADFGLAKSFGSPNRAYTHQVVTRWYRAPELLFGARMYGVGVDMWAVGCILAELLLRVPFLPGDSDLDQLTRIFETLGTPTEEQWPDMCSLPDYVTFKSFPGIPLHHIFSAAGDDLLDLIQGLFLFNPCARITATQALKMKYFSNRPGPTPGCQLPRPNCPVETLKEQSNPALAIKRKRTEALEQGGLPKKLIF
Assay: Inhibition of recombinant human full length CDK7/cyclin H1 expressed in Sf9 cells incubated for 10 mins by ADP-Glo reagent assay
Settings: not given
Molecule `O=C(Nc1ccc(F)cc1)c1n[nH]cc1NC(=O)c1c(F)cccc1F` has an IC50 of over 1 µM.

Biological target: Cyclin-dependent kinase 4/cyclin D1 (Homo sapiens, UniProt P11802)
Sequence (P11802 whole entry): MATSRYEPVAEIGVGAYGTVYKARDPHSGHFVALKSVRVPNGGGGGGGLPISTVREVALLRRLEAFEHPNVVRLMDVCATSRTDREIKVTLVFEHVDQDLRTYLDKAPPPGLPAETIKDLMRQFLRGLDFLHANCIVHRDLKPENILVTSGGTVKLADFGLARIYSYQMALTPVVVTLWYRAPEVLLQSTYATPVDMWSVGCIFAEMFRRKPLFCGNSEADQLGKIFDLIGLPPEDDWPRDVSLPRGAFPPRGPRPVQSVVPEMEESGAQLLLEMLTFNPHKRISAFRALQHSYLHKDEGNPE
Sequence (P24385 whole entry, further chain): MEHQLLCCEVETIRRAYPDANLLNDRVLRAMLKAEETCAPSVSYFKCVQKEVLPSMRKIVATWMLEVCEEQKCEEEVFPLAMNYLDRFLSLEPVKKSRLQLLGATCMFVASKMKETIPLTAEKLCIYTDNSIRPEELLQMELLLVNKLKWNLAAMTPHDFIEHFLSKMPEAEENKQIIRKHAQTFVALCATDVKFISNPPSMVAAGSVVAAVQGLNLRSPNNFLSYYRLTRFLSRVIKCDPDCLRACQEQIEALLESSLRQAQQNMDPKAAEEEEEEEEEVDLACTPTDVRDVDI
Assay: Inhibition of recombinant human full length CDK4/cyclin D1 expressed in Sf9 cells incubated for 10 mins by ADP-Glo reagent assay
Settings: not given
For `O=C(Nc1ccc(F)cc1)c1n[nH]cc1NC(=O)c1c(F)cccc1F`, the IC50 was over 1 µM.

Tested on: HCT-116
Assay: cells
Type: functional
Settings: Homo sapiens, time 72 hrs, read-out: GI
In the case of `O=C(Nc1ccc(F)cc1)c1n[nH]cc1NC(=O)c1c(F)cccc1F`, the inhibition of growth at 2 µM is reported as 57.6%. Molecule `Nc1ccc(F)cc1NC(=O)c1ccc(CNC(=O)/C=C/c2cccnc2)cc1` has an inhibition of growth at 2 µM of 64.4%. `Nc1ccccc1NC(=O)Cc1ccc(NC(=O)c2n[nH]cc2NC(=O)c2c(F)cccc2Cl)cc1` showed an inhibition of growth at 2 µM of 60.4%. Work on `O=C(Cc1ccc(NC(=O)c2n[nH]cc2NC(=O)c2c(Cl)cccc2Cl)cc1)NO` yielded an inhibition of growth at 2 µM of 62.1%. In the case of `Nc1ccccc1NC(=O)Cc1ccc(NC(=O)c2n[nH]cc2NC(=O)c2c(F)cccc2F)cc1`, the inhibition of growth at 2 µM is reported as 76.8%. With `Nc1ccccc1NC(=O)c1ccc(CNC(=O)c2n[nH]cc2NC(=O)c2ccccc2F)cc1` the inhibition of growth at 2 µM was 39.8%.

Tested on: HeLa
Assay: cells
Type: functional, cell-based
Settings: Homo sapiens, 72 h
Description: Antiproliferative activity against human Hela cells assessed as inhibition of cell growth incubated for 72 hrs by CCK-8 assay
For `O=C(Nc1ccc(F)cc1)c1n[nH]cc1NC(=O)c1c(F)cccc1F`, the IC50 was 8.23 µM. `Nc1ccc(F)cc1NC(=O)c1ccc(CNC(=O)/C=C/c2cccnc2)cc1` showed an IC50 of 14.9 µM. `Nc1ccccc1NC(=O)Cc1ccc(NC(=O)c2n[nH]cc2NC(=O)c2c(F)cccc2Cl)cc1` showed an IC50 of 4.3 µM. Molecule `O=C(Cc1ccc(NC(=O)c2n[nH]cc2NC(=O)c2c(Cl)cccc2Cl)cc1)NO` has an IC50 of 7.15 µM. Work on `Nc1ccccc1NC(=O)Cc1ccc(NC(=O)c2n[nH]cc2NC(=O)c2c(F)cccc2F)cc1` yielded an IC50 of 8.89 µM. Molecule `Nc1ccccc1NC(=O)c1ccc(CNC(=O)c2n[nH]cc2NC(=O)c2ccccc2F)cc1` has an IC50 of 3.44 µM.

Tested on: NCI-H460
Assay: Antimigratory activity against human H460 cells assessed as inhibition of cell migration at 0.5 uM measured after 48 hrs by cell scratch assay
Type: functional, cell-based
Settings: not given
In the case of `O=C(Nc1ccc(F)cc1)c1n[nH]cc1NC(=O)c1c(F)cccc1F`, the inhibition is reported as “Active”. With `Nc1ccc(F)cc1NC(=O)c1ccc(CNC(=O)/C=C/c2cccnc2)cc1` the inhibition was “Active”.

Tested on: A-375
Assay: Antimigratory activity against human A375 cells assessed as inhibition of cell migration at 0.25 uM measured after 48 hrs by cell scratch assay
Type: functional, cell-based
Settings: not given
With `O=C(Nc1ccc(F)cc1)c1n[nH]cc1NC(=O)c1c(F)cccc1F` the inhibition was “Active”. For `Nc1ccc(F)cc1NC(=O)c1ccc(CNC(=O)/C=C/c2cccnc2)cc1`, the inhibition was “Active”.

Tested on: NCI-H460
Assay: cells
Type: functional, cell-based
Settings: Homo sapiens, NCI-H460, 72 h
Description: Antiproliferative activity against human H460 cells assessed as inhibition of cell growth incubated for 72 hrs by CCK-8 assay
`O=C(Nc1ccc(F)cc1)c1n[nH]cc1NC(=O)c1c(F)cccc1F` gave an IC50 of 9.46 µM. Molecule `Nc1ccc(F)cc1NC(=O)c1ccc(CNC(=O)/C=C/c2cccnc2)cc1` has an IC50 of over 32 µM. For `Nc1ccccc1NC(=O)Cc1ccc(NC(=O)c2n[nH]cc2NC(=O)c2c(F)cccc2Cl)cc1`, the IC50 was 5.34 µM. Molecule `O=C(Cc1ccc(NC(=O)c2n[nH]cc2NC(=O)c2c(Cl)cccc2Cl)cc1)NO` has an IC50 of 6.88 µM. With `Nc1ccccc1NC(=O)Cc1ccc(NC(=O)c2n[nH]cc2NC(=O)c2c(F)cccc2F)cc1` the IC50 was 4.99 µM. `Nc1ccccc1NC(=O)c1ccc(CNC(=O)c2n[nH]cc2NC(=O)c2ccccc2F)cc1` showed an IC50 of 9.99 µM.

Tested on: NCI-H460
Assay: cells
Type: functional
Settings: Homo sapiens, time 72 hrs, read-out: GI
Remark: another data set of the same source
`O=C(Nc1ccc(F)cc1)c1n[nH]cc1NC(=O)c1c(F)cccc1F` showed an inhibition of growth at 2 µM of 21.3%. With `Nc1ccc(F)cc1NC(=O)c1ccc(CNC(=O)/C=C/c2cccnc2)cc1` the inhibition of growth at 2 µM was 1.73%. `Nc1ccccc1NC(=O)Cc1ccc(NC(=O)c2n[nH]cc2NC(=O)c2c(F)cccc2Cl)cc1` showed an inhibition of growth at 2 µM of 16.4%. In the case of `O=C(Cc1ccc(NC(=O)c2n[nH]cc2NC(=O)c2c(Cl)cccc2Cl)cc1)NO`, the inhibition of growth at 2 µM is reported as 10.5%. Work on `Nc1ccccc1NC(=O)Cc1ccc(NC(=O)c2n[nH]cc2NC(=O)c2c(F)cccc2F)cc1` yielded an inhibition of growth at 2 µM of 3.52%. For `Nc1ccccc1NC(=O)c1ccc(CNC(=O)c2n[nH]cc2NC(=O)c2ccccc2F)cc1`, the inhibition of growth at 2 µM was 7.25%.

Tested on: HCT-116
Assay: cells
Type: functional
Settings: Homo sapiens, time 72 hrs, read-out: GI
Remark: another data set of the same source
In the case of `O=C(Nc1ccc(F)cc1)c1n[nH]cc1NC(=O)c1c(F)cccc1F`, the inhibition of growth at 8 µM is reported as 74%. In the case of `Nc1ccc(F)cc1NC(=O)c1ccc(CNC(=O)/C=C/c2cccnc2)cc1`, the inhibition of growth at 8 µM is reported as 72.2%. For `Nc1ccccc1NC(=O)Cc1ccc(NC(=O)c2n[nH]cc2NC(=O)c2c(F)cccc2Cl)cc1`, the inhibition of growth at 8 µM was 74.3%. `O=C(Cc1ccc(NC(=O)c2n[nH]cc2NC(=O)c2c(Cl)cccc2Cl)cc1)NO` showed an inhibition of growth at 8 µM of 75.8%. Molecule `Nc1ccccc1NC(=O)Cc1ccc(NC(=O)c2n[nH]cc2NC(=O)c2c(F)cccc2F)cc1` has an inhibition of growth at 8 µM of 81.6%. `Nc1ccccc1NC(=O)c1ccc(CNC(=O)c2n[nH]cc2NC(=O)c2ccccc2F)cc1` gave an inhibition of growth at 8 µM of 81.2%.

Tested on: SMMC-7721
Assay: cells
Type: functional, cell-based
Settings: Homo sapiens, SMMC-7721, 72 h
Description: Antiproliferative activity against human SMMC7721 cells assessed as inhibition of cell growth incubated for 72 hrs by CCK-8 assay
With `O=C(Nc1ccc(F)cc1)c1n[nH]cc1NC(=O)c1c(F)cccc1F` the IC50 was 23.2 µM. In the case of `Nc1ccc(F)cc1NC(=O)c1ccc(CNC(=O)/C=C/c2cccnc2)cc1`, the IC50 is reported as 25.6 µM. With `Nc1ccccc1NC(=O)Cc1ccc(NC(=O)c2n[nH]cc2NC(=O)c2c(F)cccc2Cl)cc1` the IC50 was 14.4 µM. With `O=C(Cc1ccc(NC(=O)c2n[nH]cc2NC(=O)c2c(Cl)cccc2Cl)cc1)NO` the IC50 was 12.3 µM. In the case of `Nc1ccccc1NC(=O)Cc1ccc(NC(=O)c2n[nH]cc2NC(=O)c2c(F)cccc2F)cc1`, the IC50 is reported as 16.5 µM. `Nc1ccccc1NC(=O)c1ccc(CNC(=O)c2n[nH]cc2NC(=O)c2ccccc2F)cc1` gave an IC50 of 6.85 µM.

Tested on: A-375
Assay: cells
Type: functional, cell-based
Settings: Homo sapiens, A-375, 72 h
Description: Antiproliferative activity against human A375 cells assessed as inhibition of cell growth incubated for 72 hrs by CCK-8 assay
`O=C(Nc1ccc(F)cc1)c1n[nH]cc1NC(=O)c1c(F)cccc1F` gave an IC50 of 13.4 µM. Molecule `Nc1ccc(F)cc1NC(=O)c1ccc(CNC(=O)/C=C/c2cccnc2)cc1` has an IC50 of 4.11 µM. `Nc1ccccc1NC(=O)Cc1ccc(NC(=O)c2n[nH]cc2NC(=O)c2c(F)cccc2Cl)cc1` showed an IC50 of 2.89 µM. For `O=C(Cc1ccc(NC(=O)c2n[nH]cc2NC(=O)c2c(Cl)cccc2Cl)cc1)NO`, the IC50 was 4.61 µM. For `Nc1ccccc1NC(=O)Cc1ccc(NC(=O)c2n[nH]cc2NC(=O)c2c(F)cccc2F)cc1`, the IC50 was 2.97 µM. `Nc1ccccc1NC(=O)c1ccc(CNC(=O)c2n[nH]cc2NC(=O)c2ccccc2F)cc1` gave an IC50 of 2.27 µM.

Biological target: Histone deacetylase 2 (Homo sapiens, UniProt Q92769)
Sequence (Q92769 whole entry): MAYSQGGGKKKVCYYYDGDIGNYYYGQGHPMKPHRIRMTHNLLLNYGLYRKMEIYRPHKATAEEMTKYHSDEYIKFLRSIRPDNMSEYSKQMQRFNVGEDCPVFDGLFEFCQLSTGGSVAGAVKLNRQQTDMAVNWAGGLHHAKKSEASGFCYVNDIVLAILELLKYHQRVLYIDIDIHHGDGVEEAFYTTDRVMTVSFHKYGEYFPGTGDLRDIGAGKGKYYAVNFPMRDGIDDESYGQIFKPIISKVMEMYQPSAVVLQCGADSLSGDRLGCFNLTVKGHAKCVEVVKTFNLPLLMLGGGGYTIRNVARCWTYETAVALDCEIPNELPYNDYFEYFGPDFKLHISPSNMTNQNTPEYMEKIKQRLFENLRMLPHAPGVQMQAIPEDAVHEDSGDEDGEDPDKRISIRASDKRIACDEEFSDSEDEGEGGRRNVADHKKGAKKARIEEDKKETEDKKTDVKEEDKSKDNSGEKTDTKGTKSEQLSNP
Assay: Inhibition of human recombinant HDAC2 preincubated for 10 mins followed by addition of substrate fluor De Lys green measured after 30 mins by fluorescent plate reader analysis
Settings: not given
Molecule `Nc1ccc(F)cc1NC(=O)c1ccc(CNC(=O)/C=C/c2cccnc2)cc1` has an IC50 of 0.023 µM.

Tested on: HCT-116
Assay: cells
Type: functional, cell-based
Settings: Homo sapiens, HCT-116, 72 h
Description: Antiproliferative activity against human HCT116 cells assessed as inhibition of cell growth incubated for 72 hrs by CCK-8 assay
In the case of `O=C(Nc1ccc(F)cc1)c1n[nH]cc1NC(=O)c1c(F)cccc1F`, the IC50 is reported as 1.96 µM. `Nc1ccc(F)cc1NC(=O)c1ccc(CNC(=O)/C=C/c2cccnc2)cc1` gave an IC50 of 2.77 µM. In the case of `Nc1ccccc1NC(=O)Cc1ccc(NC(=O)c2n[nH]cc2NC(=O)c2c(F)cccc2Cl)cc1`, the IC50 is reported as 2.57 µM. For `O=C(Cc1ccc(NC(=O)c2n[nH]cc2NC(=O)c2c(Cl)cccc2Cl)cc1)NO`, the IC50 was 2.4 µM. For `Nc1ccccc1NC(=O)Cc1ccc(NC(=O)c2n[nH]cc2NC(=O)c2c(F)cccc2F)cc1`, the IC50 was 3.46 µM. Work on `Nc1ccccc1NC(=O)c1ccc(CNC(=O)c2n[nH]cc2NC(=O)c2ccccc2F)cc1` yielded an IC50 of 4.8 µM.

Biological target: CDK6/cyclin D3 (Homo sapiens, UniProt Q00534)
Sequence (P30281 whole entry): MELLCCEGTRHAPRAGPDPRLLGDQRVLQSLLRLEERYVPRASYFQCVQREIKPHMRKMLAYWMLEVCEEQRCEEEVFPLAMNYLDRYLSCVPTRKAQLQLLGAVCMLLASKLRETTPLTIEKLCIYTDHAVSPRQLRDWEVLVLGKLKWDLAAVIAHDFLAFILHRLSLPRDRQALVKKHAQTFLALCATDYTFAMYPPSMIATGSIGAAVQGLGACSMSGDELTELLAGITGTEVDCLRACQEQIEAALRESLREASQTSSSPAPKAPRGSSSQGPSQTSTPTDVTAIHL
Sequence (Q00534 whole entry): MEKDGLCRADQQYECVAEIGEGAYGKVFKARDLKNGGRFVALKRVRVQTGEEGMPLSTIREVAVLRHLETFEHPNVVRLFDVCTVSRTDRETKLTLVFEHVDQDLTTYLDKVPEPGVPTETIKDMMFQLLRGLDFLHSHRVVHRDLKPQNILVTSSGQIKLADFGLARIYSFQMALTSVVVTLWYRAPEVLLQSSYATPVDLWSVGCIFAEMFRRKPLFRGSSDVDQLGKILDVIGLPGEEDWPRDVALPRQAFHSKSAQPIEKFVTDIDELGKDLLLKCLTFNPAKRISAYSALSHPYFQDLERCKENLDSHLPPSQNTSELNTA
Assay: Inhibition of recombinant human full length CDK6/cyclin D3 incubated for 10 mins by ADP-Glo reagent assay
Type: protein-complex assay
Settings: not given
With `O=C(Nc1ccc(F)cc1)c1n[nH]cc1NC(=O)c1c(F)cccc1F` the IC50 was over 1 µM.

From ChEMBL document CHEMBL4680185, “Discovery of novel cyclin-dependent kinase (CDK) and histone deacetylase (HDAC) dual inhibitors with potent in vitro and in vivo anticancer activity” (Eur J Med Chem, 2020)
